Data from patent publication US20060198889A1, “Roflumilast and integrin inhibitor combination and treatement method” (priority 2005, published 2006).

Assays:
[1] = tested on: mild/moderate asthmatics not treated with inhaled corticosteroids; assay: ARES study: R411 monotherapy, 12 week treatment period; assay type: in vivo, human; conditions: for Asthma control Questionnaire (Total Score), change from baseline / Morning asthma symptoms, change from baseline / Rescue β2-agonist use (puffs/d), change from baseline: ITT population
Procedure: The ARES study illustrated in FIG. 3 was designed to evaluate the safety and efficacy of monotherapy R411 over a 12 week treatment period in 480 mild/moderate asthmatics not treated with inhaled corticosteroids. Patients were randomized to one of four cohorts: 50, 200, 600 mg QD R411, or placebo (n=120/group). The primary endpoint in the study was change in FEV1 from baseline, and secondary endpoints included PEFR, asthma exacerbations, β2-agonist use, asthma control questionnaire, asthma symptom scores, and nocturnal awakenings. Small airway inflammation represents a clinically significant component of moderate to severe asthma that is not adequately controlled by currently available inhaled corticosteroids therapies.
ARES study evaluated the safety and efficacy of monotherapy with R411 over a 12-week treatment period in 479 mild/moderate asthmatics not treated with inhaled corticosteroids. Patients were randomized to one of four cohorts: 50, 200, 600 mg once daily R411, or placebo.

α4/β1 integrin = α4/β1 integrin (Homo sapiens, UniProt P05556+P13612); assay: Inhibition of α4/β1 binding to VCAM-1
Chain of α4/β1 integrin (P05556 21-798, one chain of several): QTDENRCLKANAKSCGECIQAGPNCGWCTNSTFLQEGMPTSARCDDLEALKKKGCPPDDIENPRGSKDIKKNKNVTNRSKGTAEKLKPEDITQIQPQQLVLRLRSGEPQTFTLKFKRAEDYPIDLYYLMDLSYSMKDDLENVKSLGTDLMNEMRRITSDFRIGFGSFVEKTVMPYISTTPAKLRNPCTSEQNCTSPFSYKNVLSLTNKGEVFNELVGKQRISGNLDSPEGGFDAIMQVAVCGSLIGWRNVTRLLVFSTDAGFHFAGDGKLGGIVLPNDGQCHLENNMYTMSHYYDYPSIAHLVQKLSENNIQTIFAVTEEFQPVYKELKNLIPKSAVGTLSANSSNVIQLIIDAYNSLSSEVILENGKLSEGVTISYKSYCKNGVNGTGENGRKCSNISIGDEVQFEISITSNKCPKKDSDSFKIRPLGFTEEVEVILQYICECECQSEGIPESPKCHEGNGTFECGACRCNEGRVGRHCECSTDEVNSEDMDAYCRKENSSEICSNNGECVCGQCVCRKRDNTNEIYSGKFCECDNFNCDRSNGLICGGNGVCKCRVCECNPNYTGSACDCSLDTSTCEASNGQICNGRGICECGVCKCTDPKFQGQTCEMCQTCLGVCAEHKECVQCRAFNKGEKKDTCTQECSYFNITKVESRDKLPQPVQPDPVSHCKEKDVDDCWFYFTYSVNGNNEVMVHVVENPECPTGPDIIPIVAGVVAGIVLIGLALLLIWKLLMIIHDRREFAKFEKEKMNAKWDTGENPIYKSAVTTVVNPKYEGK

α4/β7 integrin = biological target: T1, α4/β7 integrin (Homo sapiens, UniProt P13612+P26010); assay: Inhibition of α4/β7 binding to MadCAM-1
T1 sequence (P13612 34-1032): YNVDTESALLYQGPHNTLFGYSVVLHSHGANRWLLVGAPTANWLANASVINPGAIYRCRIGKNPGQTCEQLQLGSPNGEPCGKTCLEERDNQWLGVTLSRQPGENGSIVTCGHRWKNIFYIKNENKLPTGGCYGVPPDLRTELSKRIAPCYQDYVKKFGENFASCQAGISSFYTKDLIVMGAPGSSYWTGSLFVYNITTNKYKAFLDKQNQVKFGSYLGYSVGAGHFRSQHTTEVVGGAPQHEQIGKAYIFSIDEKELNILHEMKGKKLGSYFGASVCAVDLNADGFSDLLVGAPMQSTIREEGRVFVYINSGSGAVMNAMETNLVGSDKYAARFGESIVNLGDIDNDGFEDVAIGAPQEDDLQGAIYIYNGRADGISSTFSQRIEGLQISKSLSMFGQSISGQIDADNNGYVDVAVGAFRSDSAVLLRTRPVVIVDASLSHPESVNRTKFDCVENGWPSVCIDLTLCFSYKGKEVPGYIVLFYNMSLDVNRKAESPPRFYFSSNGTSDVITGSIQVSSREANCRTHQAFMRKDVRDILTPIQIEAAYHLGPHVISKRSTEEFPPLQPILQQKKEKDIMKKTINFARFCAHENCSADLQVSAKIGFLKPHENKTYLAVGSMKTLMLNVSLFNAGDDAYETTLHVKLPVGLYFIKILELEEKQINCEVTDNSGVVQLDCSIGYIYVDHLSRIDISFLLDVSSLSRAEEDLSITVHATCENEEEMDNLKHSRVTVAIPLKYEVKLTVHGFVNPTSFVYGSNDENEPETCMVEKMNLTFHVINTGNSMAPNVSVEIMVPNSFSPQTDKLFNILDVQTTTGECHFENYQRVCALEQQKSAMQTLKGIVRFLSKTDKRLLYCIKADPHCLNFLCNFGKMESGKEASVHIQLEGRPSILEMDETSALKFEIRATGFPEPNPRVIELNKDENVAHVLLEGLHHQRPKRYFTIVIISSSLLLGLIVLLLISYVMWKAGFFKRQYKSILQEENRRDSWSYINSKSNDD
T1 sequence (P26010 20-798): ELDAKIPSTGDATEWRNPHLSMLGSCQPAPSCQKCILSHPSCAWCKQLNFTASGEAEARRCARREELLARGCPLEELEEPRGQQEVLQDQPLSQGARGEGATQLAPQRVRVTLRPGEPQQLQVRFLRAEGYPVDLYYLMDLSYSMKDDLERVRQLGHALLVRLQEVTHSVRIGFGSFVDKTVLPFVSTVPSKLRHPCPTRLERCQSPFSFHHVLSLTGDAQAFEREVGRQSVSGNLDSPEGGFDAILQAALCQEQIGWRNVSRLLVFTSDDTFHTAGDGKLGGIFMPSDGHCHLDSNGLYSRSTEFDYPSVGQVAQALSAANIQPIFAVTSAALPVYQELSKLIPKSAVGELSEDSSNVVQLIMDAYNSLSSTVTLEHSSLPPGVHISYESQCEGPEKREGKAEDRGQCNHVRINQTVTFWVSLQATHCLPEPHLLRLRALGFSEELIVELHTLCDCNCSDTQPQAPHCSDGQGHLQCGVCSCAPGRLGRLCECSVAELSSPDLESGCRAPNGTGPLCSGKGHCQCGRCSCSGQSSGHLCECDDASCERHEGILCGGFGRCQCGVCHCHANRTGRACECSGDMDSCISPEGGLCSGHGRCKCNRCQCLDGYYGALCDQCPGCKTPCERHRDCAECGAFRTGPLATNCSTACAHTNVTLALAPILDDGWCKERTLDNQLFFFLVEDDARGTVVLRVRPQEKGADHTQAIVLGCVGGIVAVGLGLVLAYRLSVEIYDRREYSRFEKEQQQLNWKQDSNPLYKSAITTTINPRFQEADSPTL

[2] = tested on: airway inflammation in the atopic primate; assay: Airway inflammation in the atopic primate, oral R411 (FIG. 4); assay type: in vivo; conditions: oral administration, atopic primate (FIG. 4)
[3] = 12-week monotherapy, versus placebo

In the case of `CCN(CC)CCOC(=O)[C@H](Cc1ccc(NC(=O)c2c(Cl)cccc2Cl)cc1)NC(=O)c1c(C)cccc1Cl` [R411, N-(2-Chloro-6-methylbenzoyl)-4-[(2,6-dichlorobenzoyl)amino]-L-phenylalanine-2-(diethylamino)ethyl ester], the “decrease in daytime asthma symptom score” value [1, 3] is reported as “Statistically significant improvements”, the “decrease in nocturnal symptom score” value [1, 3] is reported as “Statistically significant improvements” and the “Asthma control Questionnaire (Total Score), change from baseline” value ([1]; R411 200 mg once daily) is reported as −0.29 [2.08] Total Score. For the same compound, the “Morning asthma symptoms, change from baseline” value ([1]; R411 200 mg once daily) was −0.34*[1.55], the “Rescue β2-agonist use (puffs/d), change from baseline” value ([1]; R411 200 mg once daily, N = 117) was −0.36/[3.04] puffs/d and the “Asthma control Questionnaire (Total Score), change from baseline” value ([1]; R411 600 mg once daily) was −0.23 [2.00] Total Score. The “Morning asthma symptoms, change from baseline” value ([1]; R411 600 mg once daily) was −0.33*[1.57], the “Rescue β2-agonist use (puffs/d), change from baseline” value ([1]; R411 600 mg once daily, N = 119) was −0.41*/[3.11] puffs/d and the “Asthma Control Questionnaire Scores” value ([1]; compared to placebo) was “Improvement”. The “Asthma Quality-of-Life” value ([1]; compared to placebo) was “Improvement”, the “binding of α4/β1 to vascular cell adhesion molecule (VCAM-1)” value (α4/β1 integrin) was “inhibits” and the “effectiveness against α4/β1 integrin” value (α4/β1 integrin) was “effective”. The “binding of α4/β7 to MadCAM-1” value (α4/β7 integrin) was “inhibits”, the “effectiveness against α4/β7 integrin” value (α4/β7 integrin) was “effective” and the airway inflammation [2] was “attenuates”.
